Measured values as given in paper PMC9421656, “Beyond Retigabine: Design, Synthesis, and Pharmacological Characterization of a Potent and Chemically Stable Neuronal Kv7 Channel Activator with Anticonvulsant Activity” (Journal of Medicinal Chemistry, 2022).
Where “and” joins values, the source holds several entries; their conditions need not be identical. Equal values may be shown once. Entries after “also recorded” stand apart in the source; their conditions may differ.

What was measured:
Kv7.2/Kv7.3 channels [1] = biological target: T1, Kv7.2/Kv7.3 channels (Homo sapiens, UniProt O43525+O43526); design: expressed in transfected cells; details: cited from earlier work
Kv7.2/Kv7.3 channels [2] = biological target: T1, Kv7.2/Kv7.3 channels; test: FluxOR thallium-sensitive fluorescence-based assay in CHO cells stably expressing Kv7.2 + Kv7.3; format: cell-based; design: expressed in transfected cells; details: for Kv7 opening activity (in words) / Slope of the fluorescent signal at 10 μM: 10 μM; for Kv7 opening activity (in words): compared with retigabine or the reference compound of the subseries; for Slope of the fluorescent signal at 10 μM: initial slope of FluxOR signal between 5 and 15 s, mean ± SEM
Experimental: While assay robustness in Kv7.2/Kv7.3-expressing cells was high (Z′ factor > 0.5),[27] the Z′ factor calculated in CHO cells expressing Kv7.2 subunits alone was <0.5; thus, all subsequent pharmacological screens were performed in Kv7.2/Kv7.3-expressing cells. […] The Kv7.2/Kv7.3-stable cell line was generated using a plasmid-based PiggyBac transposon system that enables genomic integration of multiple independent transposons containing distinct cDNA sequences. cDNAs for KCNQ2 and KCNQ3 genes (encoding for Kv7.2 and Kv7.3, respectively) were cloned into two different PiggyBac expression vectors (pB-CMV-MCS-EF1α-RedPuro, System Biosciences), and these two plasmids, together with a plasmid encoding for the transposase (System Biosciences), were transfected into CHO cells using Lipofectamine 2000 (Invitrogen) as indicated in the protocol provided by the seller company.
The selected clone stably expressing Kv7.2/Kv7.3 channels was grown in DMEM supplemented with 10% FBS, 50 U/mL Pen-Strep, 2 mM L-glutamine (all purchased from Gibco), and 4 μg/mL puromycin (Sigma) in a humidified atmosphere at 37 °C with 5% CO2. […] A kinetic dispense microplate reader (FLUOstar Optima) was used to read the plate, setting the excitation filter at 485 nm and the emission filter at 520 nm; “Stimulus buffer” prepared as indicated in the protocol was automatically added to wells after 5 s of recording; the plate was read every 1 s, for 50 s. The results were analyzed using Optima Data Analysis and Microsoft Excel.
Only experiments resulting in a Z′ > 0.5 were considered. Data shown (Figures 1D,E,F,G and 3B) were obtained from at least three independent experiments.
Data were analyzed using the GraphPad Prism 8.0.2 (GraphPad Software, LaJolla, CA). Statistically significant differences in the initial slope of the curves were evaluated through ordinary one-way ANOVA, and multiple comparisons were corrected with the Tukey test. […] Indicated EC50 values are the mean of at least three independent experiments ± standard error of the mean (SEM).

PTZ-induced seizures = test: Pentylenetetrazol (PTZ)-induced acute seizures in mice; format: in vivo, C57Bl/6 mice; details: XE991 alone, 3 mg/kg i.p.
Experimental: A subcutaneous (s.c.) injection of 100 mg/kg PTZ in mice is able to trigger convulsive behavior whose intensity can be assessed and quantified according to the revised Lüttjohann’s scale (see Materials and Methods),[40] using a 9-point severity score ranging from 0 (whisker trembling) to 8 (wild jumping). For each animal, the maximal severity score (Figure 5A) and the time latency required to reach such values (Figure 5B) were recorded.
Food and water were available ad libitum. Animals were experimentally naive and were used only once.
Thus, each dose was dissolved to allow injection of 0.01 mL/g, i.p. The control group was represented by mice injected only with vehicle solution (saline containing 2% Tween-20 and 2% PEG-400).
PTZ was injected, and animals were placed in clear Plexiglass boxes for observation of seizure activity. The severity of convulsions (from minimal “clonic” to maximal “generalized tonic–clonic”) as well as the latency to onset of maximal seizure was recorded.
0 = whisker trembling, 1 = sudden behavioral arrest, 2 = facial jerking, 3 = neck jerks, 4 = clonic seizures (sitting), 5 = tonic clonic seizures (lying on belly), 6 = clonic seizures (lying on side), 7 = tonic clonic seizures (lying on side), 8 = wild jumping. The behavioral assessments described above were performed in a blind manner and the observers had to reach a unanimous agreement regarding the scoring of the behavior.
The number of animals needed for the experiment was determined using the power analysis software GPower version 3.1.92. The required minimum sample size was 8 mice per group. Statistical analyses were performed using GraphPad Prism (GraphPad Software, LaJolla, CA) using a one-way analysis of variance with the Tukey post-hoc test. The P value of <0.05 was accepted as indicative of a statistically significant difference.

[3] = Photostability under UV-visible light with HPLC analysis (degradation, dimer formation); format: physicochemical; details: for % Degradation (3h, UV): 10 μM, buffered aqueous solution pH 7.4, 3 h UV-visible light, ± SD; for Dimers Formation / Photodegradation (in words): 3 h UV-visible light; for Dimers Formation: HPLC at 550 nm; for Photodegradation (in words): compared with retigabine
Source text: Two different HPLC wavelengths were utilized: (a) […] to evaluate the decreased concentration of the starting molecule; (b) 550 nm to investigate the formation of phenazine/phenazinium dimers, as previously described.[10] Unfortunately, dimer formation was detected for all tested compounds, except for 23 and 24. […]. […]. The first group consisted of N4 (−X- in Table 2) substituted analogues, in which the tertiary amine is unavailable for the formation of phenazine dimers (compounds 25–28). […]. The third group included derivatives replacing hydrogen atoms with electron-withdrawing fluorine atoms at position R2 of the benzene-1,2,4-triamine core scaffold (compounds 59, 60), a strategy likely reducing the reactivity of N2 and N4. […].
Photostability experiments were performed by dissolving compounds in DMSO and then diluting in buffered aqueous solutions at pH 7.4 to a final concentration of 10 μM. 1 cm quartz cells, filled with the abovementioned solutions, were irradiated by a UV lamp (UV Consulting TQ 150 equipped with Duran 50 sleeve and 150 W power supply unit, Peschl, Germany) at a fixed distance of 20 cm from the UV source. Control samples were maintained at 37 °C, wrapped with aluminum foil to avoid light exposure, and used to assess chemical stability of the compounds. At predetermined intervals, aliquots were withdrawn and analyzed by UHPLC in order to assess the concentration decrease of the starting materials and the presence of the dimers usually formed by retigabine.
Photostability and chemical stability experiments were carried out on a Kinetex^TM C18 150 × 2.1 mm × 2.6 μm (100 Å) column (Phenomenex, Bologna, Italy). The optimal mobile phase consisted of 0.1% TFA/H2O v/v (A) and 0.1% TFA/ACN v/v (B). Analysis was performed in gradient elution as follows: 0–13.0 min, 5–65% B; 13–14.0 min, 65–95% B; 14–15.0 min, isocratic to 95% B; 15–15.01 min, 95–5% B; then 3 min for column re-equilibration. The flow rate was 0.5 mL min^–1. The column oven temperature was set to 45 °C. The injection volume was 7 μL of sample. The following PDA parameters were applied: sampling rate, 12.5 Hz; detector time constant, 0.160 s; cell temperature, 40 °C. Data acquisition was set in the range 190–800 nm, and chromatograms were monitored at 224 nm to assess the decrease in concentration of the starting material, while a wavelength of 550 nm was used to eventually detect dimerization.

[4] = In vitro metabolism assay (S9 fraction of human liver microsomes); format: in vitro ADME; details: human
Experimental: To further explore the metabolic stability of compounds 25, 26, and 60 in a biologically relevant model, they were tested in an in vitro metabolism assay (S9 fraction of human liver microsomes) using retigabine as a comparator.[33],[34] In this assay, a very small extent (4.7 ± 0.5%) of retigabine undergoes phase I metabolism, whereas a larger fraction (17.4 ± 1.2%) was metabolized in phase II reactions, as previously reported.[35]

| Structure (SMILES) | Potency relative to retigabine in activating Kv7.2/Kv7.3 channels in vitro (Kv7.2/Kv7.3 channels [1]) | Effect on retigabine-induced increase of maximal fluorescence and initial slope (Kv7.2/Kv7.3 channels [2]; 10 μM XE991 with retigabine) | Effect on seizure severity score or latency (PTZ-induced seizures) | % Degradation (3h, UV) [3] [%] | Dimers Formation [3] | Photodegradation (in words) [3] | Kv7 opening activity (in words) (Kv7.2/Kv7.3 channels [2]) | Slope of the fluorescent signal at 10 μM (Kv7.2/Kv7.3 channels [2]) | Phase I turnover metabolism [4] [%] | Phase II turnover metabolism [4] [%] |
| --- | --- | --- | --- | --- | --- | --- | --- | --- | --- | --- |
| CCOC(=O)Nc1ccc(NCc2ccc(F)cc2)c(F)c1N [SF0034] | five times more potent than retigabine | – | – | – | – | – | – | – | – | – |
| O=C1c2ccccc2C(Cc2ccncc2)(Cc2ccncc2)c2ccccc21 [XE991, reference compound] | – | abolished | did not affect | – | – | – | – | – | – | – |
| CC(C)(C)CC(=O)Nc1ccc(NCc2ccc(C(F)(F)F)cc2)cc1N1CCCC1 [compound 23, 3,3-Dimethyl-n-(2-(pyrrolidin-1-yl)-4-((4-(trifluoromethyl)benzyl)amino)phenyl)butanamide] | – | – | – | 97.7± 1.0 | inability of compounds 23 and 24 to form dimers and No | enhanced degradation when compared to retigabine | comparable to that of the reference compound 17 | 0.0772±0.0036 | – | – |
| CC(C)(C)CC(=O)Nc1ccc(NCc2ccc(C(F)(F)F)cc2)cc1N1CCCCC1 [compound 24, 3,3-Dimethyl-N-(2-(piperidin-1-yl)-4-((4-(trifluoromethyl)benzyl)amino)phenyl)butanamide] | – | – | – | 79.8 ± 4.2 | inability of compounds 23 and 24 to form dimers and No | enhanced degradation when compared to retigabine | comparable to that of the reference compound 17 | 0.0591±0.0043 | – | – |
| CCCCCCC(=O)Nc1ccc(N(C)Cc2ccc(C(F)(F)F)cc2)cc1N [compound 25, N-(2-Amino-4-(methyl(4-(trifluoromethyl)benzyl)amino)phenyl)heptanamide] | – | – | – | 63.3±2.8 | did not form dimers and No | underwent extensive photodegradation | improved agonist activity; also recorded: higher than that of retigabine | 0.0637±0.0033 | 20.6 ± 1.4 | 33.2 ± 1.0 |
| CN(Cc1ccc(C(F)(F)F)cc1)c1ccc(NC(=O)CC(C)(C)C)c(N)c1 [compound 26, N-(2-Amino-4-(methyl(4-(trifluoromethyl)benzyl)amino)phenyl)-3,3-dimethylbutanamide] | – | – | – | 99.5±0.1 | did not form dimers and No | underwent extensive photodegradation | improved agonist activity; also recorded: higher than that of retigabine | 0.0721±0.0034 | 32.1 ± 1.2 | 32.7 ± 0.3 |
| CCCCCCC(=O)Nc1ccc(NCc2ccccc2)cc1N [compound 41, N-(2-Amino-4-(benzylamino)phenyl)heptanamide] | – | – | – | 19.5±4.7 | Yes | – | no change in activity | 0.0476±0.0030 | – | – |
| CC(C)(C)CC(=O)Nc1ccc(NCc2c(F)cccc2F)cc1N [compound 43, N-(2-Amino-4-((2,6-difluorobenzyl)amino)phenyl)-3,3-dimethylbutanamide] | – | – | – | 98.4±0.2 | Yes | – | still displayed strong activity | 0.0534±0.0028 | – | – |
| CCCCCCC(=O)Nc1ccc(NCc2ccccc2F)cc1N [compound 52, N-(2-Amino-4-((2-fluorobenzyl)amino)phenyl)heptanamide] | – | – | – | 74.9± 0.1 | Yes | – | no change in activity | 0.0448±0.0035 | – | – |
